From patent US8088801B2, “Aryloazol-2-yl cyanoethylamino compounds, method of making and method of using thereof” (Merial Limited, priority 2007, dated 2012)

What was measured:
[1] = system: Trichostrongylus colubriformis; assay: Method D: screening against Trichostrongylus colubriformis, L1 larvae in microtitre plate; details: 96 h, 4 days assessment, read-out: motility inhibition; for inhibition at 0.0025 ppm: test concentration 0.0025 ppm; for inhibition at 0.01 ppm: test concentration 0.01 ppm
Procedure: Method D: Screening Method to Test Activity of Compounds Against Trichostrongylus colubriformis.
Twenty L1 Trichostrongylus colubriformis larvae were added to wells of a microtitre plate containing a nutrient medium and the test compound in DMSO. The microtitre plate was then held at 27° C. where the L1 larvae were allowed to develop. An analysis was conducted at 4 days to determine successful development to the L3 stage. Larvae exposed to DMSO and no test compound served as controls. Compounds numbers 1.008, 1.014, 1.042, 1.047, 1.048, 1.073, 2.001, 2.003 and 2.020, gave at least 90% motility inhibition at a test concentration of 0.15 ppm at the 4 days assessment. Compounds numbers 1.001, 1.003, 1.007, 1.011, 1.037, 1.038, 1.043, 1.056, 1.066, 1.070, 1.071, 2.012 and 2.016, gave at least 90% motility inhibition at a test concentration of 0.04 ppm at the 4 days assessment. Compounds numbers 1.012, 1.020, 1.021, 1.033, 1.034, 1.039, 1.064, 1.065, 2.008, 2.009 and 3.005 gave at least 90% motility inhibition at a test concentration of 0.01 ppm at the 4 days assessment. Compounds numbers 1.094, 2.040, 2.048, 2.049, 3.006, 3.009, 3.011 and 3.012 gave at least 90% motility inhibition at a test concentration of 0.0025 ppm at the 4 days assessment.

[2] = system: Haemonchus contortus; assay: Method B: Haemonchus contortus in vivo in Mongolian gerbil, oral gavage; design: species or system Mongolian gerbil (Meriones unguiculatus); details: 72 h, Mongolian gerbils, read-out: reduction in nematode infestation; for inhibition in vivo at 100 mg/kg: necropsy 3 days after treatment
Procedure: Method B: Screening Method to Test Activity of Compounds Against Haemonchus contortus In Vivo in Mongolian Gerbil (Meriones unguiculatus).
Mongolian gerbils, at least five weeks old, were immunosuppressed and artificially infected with ca. 1000 ensheathed Haemonchus contortus third instar larvae. Six days after infection, the Mongolian gerbils were treated by oral gavage with the test compounds, dissolved in a mixture of 2 parts DMSO and 1 part polyethylene glycol (PEG400), at doses of 100 mg/kg and dissolved in pure polyethylene glycol (PEG400) at doses of 10 and 1 mg/kg. Jirds treated only with the placebo (2 parts DMSO and 1 part PEG400 or pure PEG400) served as controls. On day 9 (3 days after treatment) the jirds were euthanized and necropsied for recovery of parasites from the stomach. Efficacy was calculated as the average % reduction in the number of worms in each test group compared with the average number of worms from the control group. […] Compound numbers 1.001, 1.008, 1.012, 1.013 and 1.014 provided at least 95% reduction in nematode infestation in Mongolian gerbils treated by oral gavage with test article at a dose of 100 mg/kg. Compound numbers 1.012, 1.033, 1.064, 2.008, 2.037, 2.038, 2.040, 2.041, 3.001 provided at least 95% reduction in nematode infestation at a dose of 10 mg/kg. Compound numbers 1.094, 2.048, 3.001, 3.007 and 3.009, provided at least 95% reduction in nematode infestation at a dose of 1 mg/kg. Compound numbers 3.005, 3.006, 3.011, 3.012, 3.017 and 3.019, provided at least 95% reduction in nematode infestation at a dose of 0.5 mg/kg.

[3] = system: Microfilaria of Dirofilaria immitis; assay: Method F: microfilaria of Dirofilaria immitis in microtitre plate; details: test concentration 50 ppm, assessment at 24 hours, read-out: motility inhibition
Procedure: Method F: Screening Method to Test Activity of Compounds Against Microfilaria of Dirofilaria immitis.
Four hundred to six hundred microfilaria of Dirofilaria immitis were added to wells of a microtitre plate containing buffer and the test compound in DMSO. The microtitre plate was then held at 37° C. in an environment containing 5% CO2. An assessment was conducted at 24 hours to determine survival of the microfilaria. Microfilaria exposed to DMSO and no test compound served as controls. Compounds numbers 1.003, 1.012, 1.013, 1.064, 1.086, 1.087, 1.090, 1.094, 2.043, 2.046, 2.047, 2.048, 2.049, 3.005, 3.006, 3.009, 3.011, 3.012, 3.017, 3.019 and 3.023 gave at least 90% motility inhibition at a test concentration of 50 ppm.

[4] = system: Haemonchus contortus; assay: Method A: screening against Haemonchus contortus, L1 larvae in microtitre plate; details: 96 h, 4 days assessment, read-out: motility inhibition; for inhibition at 0.0025 ppm: test concentration 0.0025 ppm; for inhibition at 0.01 ppm: test concentration 0.01 ppm
Description: Method A: Screening Method to Test Activity of Compounds Against Haemonchus contortus.

Row | SMILES | inhibition at 0.0025 ppm [1] [%] | inhibition at 50 ppm [3] [%] | inhibition at 0.0025 ppm [4] [%] | further results
1 | Cc1c(Br)cnc2cn(CC(C)(C#N)NC(=O)c3ccc(OC(F)(F)F)cc3)nc12 (stereo not shown) [Compound 3.009, N-[2-(6-Bromo-7-methyl-2H-pyrazolo[4,3-b]pyridin-2-yl)-1-cyano-1-methylethyl]-4-trifluoromethoxybenzamide] | ≥ 90 | ≥ 90 | ≥ 90 | inhibition in vivo at 1 mg/kg [2]: ≥ 95%
2 | CC(C#N)(Cn1nc2cc(Cl)cnc2c1Br)NC(=O)c1ccc(OC(F)(F)F)cc1 (stereo not shown) [Compound 3.019, N-[2-(3-Bromo-6-chloro-2H-pyrazolo[4,3-b]pyridin-2-yl)-1-cyano-1-methylethyl]-4-trifluoromethoxybenzamide] |  | ≥ 90 |  | inhibition in vivo at 0.5 mg/kg [2]: ≥ 95%; inhibition at 0.04 ppm ([4]; test concentration 0.04 ppm): ≥ 90%
3 | CC(C#N)(Cn1cc2ncc(Br)cc2n1)NC(=O)c1ccc(OC(F)(F)F)cc1 (stereo not shown) [Compound 3.011, N-[2-(6-Bromo-2H-pyrazolo[4,3-b]pyridin-2-yl)-1-cyano-1-methylethyl]-4-trifluoromethoxybenzamide] | ≥ 90 | ≥ 90 | ≥ 90 | inhibition in vivo at 0.5 mg/kg [2]: ≥ 95%
4 | CC(C#N)(Cn1nc2cc(Cl)cc(Cl)c2n1)NC(=O)c1ccc(OC(F)(F)F)cc1 (stereo not shown) [Compound 1.012, N-[1-Cyano-2-(4,6-dichloro-2H-benzotriazol-2-yl)-1-methylethyl]-4-trifluoromethoxybenzamide] |  | ≥ 90 |  | inhibition at 0.01 ppm [1]: ≥ 90%; inhibition in vivo at 10 mg/kg [2]: ≥ 95%; inhibition in vivo at 100 mg/kg [2]: ≥ 95%; inhibition at 0.01 ppm [4]: ≥ 90%
5 | Cc1cc(Br)c(F)c2nn(CC(C)(C#N)NC(=O)c3ccc(OC(F)(F)F)cc3)nc12 (stereo not shown) [Compound 1.094, N-[2-(5-bromo-4-fluoro-7-methyl-2H-benzotriazol-2-yl)-1-cyano-1-methylethyl]-4-trifluoromethoxybenzamide] | ≥ 90 | ≥ 90 | ≥ 90 | inhibition in vivo at 1 mg/kg [2]: ≥ 95%
6 | CC(C#N)(Cn1nc2c(Br)c(Cl)cc(Cl)c2c1Br)NC(=O)c1ccc(OC(F)(F)F)cc1 (stereo not shown) [Compound 2.046, N-[1-Cyano-2-(3,7-dibromo-4,6-dichloro-2H-indazol-2-yl)-1-methylethyl]-4-trifluoromethoxybenzamide] |  | ≥ 90 | ≥ 90 | 
7 | CC(C#N)(Cn1nc2c(Cl)cc(Cl)c(Br)c2n1)NC(=O)c1ccc(OC(F)(F)F)cc1 (stereo not shown) [Compound 1.086, N-[2-(4-Bromo-5,7-dichloro-2H-benzotriazol-2-yl)-1-cyano-1-methylethyl]-4-trifluoromethoxybenzamide] |  | ≥ 90 | ≥ 90 | 
8 | CC(C#N)(Cn1nc2c(Cl)cc(Cl)c(Cl)c2n1)NC(=O)c1ccc(OC(F)(F)F)cc1 (stereo not shown) [Compound 1.064, N-[1-Cyano-1-methyl-2-(4,5,7-trichloro-2H-benzotriazol-2-yl)-ethyl]-4-trifluoromethoxybenzamide] |  | ≥ 90 | ≥ 90 | inhibition at 0.01 ppm [1]: ≥ 90%; inhibition in vivo at 10 mg/kg [2]: ≥ 95%
9 | CC(C#N)(Cn1nc2c(Cl)cc(Cl)c(F)c2n1)NC(=O)c1ccc(OC(F)(F)F)cc1 (stereo not shown) [Compound 1.090, N-[1-Cyano-2-(5,7-dichloro-4-fluoro-2H-benzotriazol-2-yl)-1-methylethyl]-4-trifluoromethoxybenzamide] |  | ≥ 90 | ≥ 90 | 
10 | CC(C#N)(Cn1cc2ncc(Cl)cc2n1)NC(=O)c1ccc(OC(F)(F)F)cc1 (stereo not shown) [Compound 3.005, N-[2-(6-Chloro-2H-pyrazolo[4,3-b]pyridin-2-yl)-1-cyano-1-methylethyl]-4-trifluoromethoxybenzamide] |  | ≥ 90 |  | inhibition at 0.01 ppm [1]: ≥ 90%; inhibition in vivo at 0.5 mg/kg [2]: ≥ 95%; inhibition at 0.01 ppm [4]: ≥ 90%
11 | CC(C#N)(Cn1nc2cc(Cl)cnc2c1Cl)NC(=O)c1ccc(OC(F)(F)F)cc1 (stereo not shown) [Compound 3.017, N-[1-Cyano-2-(3,6-dichloro-2H-pyrazolo[4,3-b]pyridin-2-yl)-1-methylethyl]-4-trifluoromethoxybenzamide] |  | ≥ 90 |  | inhibition in vivo at 0.5 mg/kg [2]: ≥ 95%; inhibition at 0.01 ppm [4]: ≥ 90%
12 | CC(C#N)(Cn1cc2ccc(Cl)c(Br)c2n1)NC(=O)c1ccc(OC(F)(F)F)cc1 (stereo not shown) [Compound 2.043, N-[2-(7-Bromo-6-chloro-2H-indazol-2-yl)-1-cyano-1-methylethyl]-4-trifluoromethoxybenzamide] |  | ≥ 90 | ≥ 90 | 
13 | Cc1cc(Cl)cc2nn(CC(C)(C#N)NC(=O)c3ccc(OC(F)(F)F)cc3)nc12 (stereo not shown) [Compound 1.033, N-[−2-(6-Chloro-4-methyl-2H-benzotriazol-2-yl)-1-cyano-1-methylethyl]-4-trifluoromethoxybenzamide] |  |  |  | inhibition at 0.01 ppm [1]: ≥ 90%; inhibition in vivo at 10 mg/kg [2]: ≥ 95%; inhibition at 0.01 ppm [4]: ≥ 90%
14 | CC(C#N)(Cn1nc2ccc(C(F)(F)F)cc2n1)NC(=O)c1ccc(OC(F)(F)F)cc1 (stereo not shown) [Compound 1.008, N-[1-Cyano-1-methyl-2-(5-trifluoromethyl-2H-benzotriazol-2-yl)ethyl]-4-trifluoromethoxybenzamide] |  |  |  | inhibition at 0.15 ppm ([1]; test concentration 0.15 ppm): ≥ 90%; inhibition in vivo at 100 mg/kg [2]: ≥ 95%; inhibition at 0.15 ppm ([4]; test concentration 0.15 ppm): ≥ 90%
15 | CC(C#N)(Cn1cc2c(Cl)cc(Cl)c(Cl)c2n1)NC(=O)c1ccc(OC(F)(F)F)cc1 (stereo not shown) [Compound 2.048, N-[1-Cyano-1-methyl-2-(4,6,7-trichloro-2H-indazol-2-yl)ethyl]-4-trifluoromethoxybenzamide] | ≥ 90 | ≥ 90 | ≥ 90 | inhibition in vivo at 1 mg/kg [2]: ≥ 95%
16 | CC(C#N)(Cn1cc2c(Cl)cc(Cl)cc2n1)NC(=O)c1ccc(OC(F)(F)F)cc1 (stereo not shown) [Compound 2.040, N-[1-Cyano-2-(4,6-dichloro-2H-indazol-2-yl)-1-methylethyl]-4-trifluoromethoxybenzamide] | ≥ 90 |  | ≥ 90 | inhibition in vivo at 10 mg/kg [2]: ≥ 95%
